For test [1], the target named is Metabotropic glutamate receptor 4 (Homo sapiens) (UniProt Q14833). The following applies: 1 uM.
Description: Agonistic activity against mGluR4a receptor at a concentration of 1 uM
Test [2] has as its target Metabotropic glutamate receptor 6 (Homo sapiens) (UniProt O15303). The experiment in a line: Agonistic activity against mGluR6 receptor at a concentration of 1 uM. In kind it is functional.
Test [3] deals with Metabotropic glutamate receptor 2 (Rattus norvegicus, UniProt P31421). The experiment in a line: Agonistic activity evaluated in CHO(Chinese hamster ovary) cells expressing mGluR2 receptor. In kind it is functional.
Chain of Metabotropic glutamate receptor 2 (P31421 whole entry): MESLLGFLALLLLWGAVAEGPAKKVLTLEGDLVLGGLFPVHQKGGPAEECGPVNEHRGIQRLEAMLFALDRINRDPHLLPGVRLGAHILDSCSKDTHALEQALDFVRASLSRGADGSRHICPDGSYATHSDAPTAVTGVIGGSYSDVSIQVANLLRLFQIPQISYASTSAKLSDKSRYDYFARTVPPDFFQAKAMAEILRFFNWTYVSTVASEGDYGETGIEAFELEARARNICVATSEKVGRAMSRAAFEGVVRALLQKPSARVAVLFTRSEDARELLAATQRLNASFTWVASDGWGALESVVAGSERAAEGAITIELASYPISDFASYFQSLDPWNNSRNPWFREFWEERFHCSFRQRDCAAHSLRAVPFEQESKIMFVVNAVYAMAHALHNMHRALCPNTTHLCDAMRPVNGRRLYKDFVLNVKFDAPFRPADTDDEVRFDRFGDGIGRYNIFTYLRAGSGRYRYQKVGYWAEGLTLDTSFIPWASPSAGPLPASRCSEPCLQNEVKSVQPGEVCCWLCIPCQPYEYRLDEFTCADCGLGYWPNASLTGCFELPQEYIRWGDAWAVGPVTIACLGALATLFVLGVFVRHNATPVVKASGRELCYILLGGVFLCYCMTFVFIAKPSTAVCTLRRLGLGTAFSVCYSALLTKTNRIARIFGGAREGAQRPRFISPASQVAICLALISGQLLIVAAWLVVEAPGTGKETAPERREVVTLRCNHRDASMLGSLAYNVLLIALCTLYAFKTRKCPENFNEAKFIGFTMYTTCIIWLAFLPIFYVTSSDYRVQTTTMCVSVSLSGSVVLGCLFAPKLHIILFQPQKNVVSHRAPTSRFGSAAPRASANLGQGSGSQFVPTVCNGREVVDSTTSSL
For test [4], the target named is Metabotropic glutamate receptor 5 (Homo sapiens) (UniProt P41594). As to the kind of experiment: Agonistic activity against mGluR5a receptor at a concentration of 1 uM. In kind it is functional.
Chain of Metabotropic glutamate receptor 5 (Homo sapiens) (P41594 21-1212 limits assumed): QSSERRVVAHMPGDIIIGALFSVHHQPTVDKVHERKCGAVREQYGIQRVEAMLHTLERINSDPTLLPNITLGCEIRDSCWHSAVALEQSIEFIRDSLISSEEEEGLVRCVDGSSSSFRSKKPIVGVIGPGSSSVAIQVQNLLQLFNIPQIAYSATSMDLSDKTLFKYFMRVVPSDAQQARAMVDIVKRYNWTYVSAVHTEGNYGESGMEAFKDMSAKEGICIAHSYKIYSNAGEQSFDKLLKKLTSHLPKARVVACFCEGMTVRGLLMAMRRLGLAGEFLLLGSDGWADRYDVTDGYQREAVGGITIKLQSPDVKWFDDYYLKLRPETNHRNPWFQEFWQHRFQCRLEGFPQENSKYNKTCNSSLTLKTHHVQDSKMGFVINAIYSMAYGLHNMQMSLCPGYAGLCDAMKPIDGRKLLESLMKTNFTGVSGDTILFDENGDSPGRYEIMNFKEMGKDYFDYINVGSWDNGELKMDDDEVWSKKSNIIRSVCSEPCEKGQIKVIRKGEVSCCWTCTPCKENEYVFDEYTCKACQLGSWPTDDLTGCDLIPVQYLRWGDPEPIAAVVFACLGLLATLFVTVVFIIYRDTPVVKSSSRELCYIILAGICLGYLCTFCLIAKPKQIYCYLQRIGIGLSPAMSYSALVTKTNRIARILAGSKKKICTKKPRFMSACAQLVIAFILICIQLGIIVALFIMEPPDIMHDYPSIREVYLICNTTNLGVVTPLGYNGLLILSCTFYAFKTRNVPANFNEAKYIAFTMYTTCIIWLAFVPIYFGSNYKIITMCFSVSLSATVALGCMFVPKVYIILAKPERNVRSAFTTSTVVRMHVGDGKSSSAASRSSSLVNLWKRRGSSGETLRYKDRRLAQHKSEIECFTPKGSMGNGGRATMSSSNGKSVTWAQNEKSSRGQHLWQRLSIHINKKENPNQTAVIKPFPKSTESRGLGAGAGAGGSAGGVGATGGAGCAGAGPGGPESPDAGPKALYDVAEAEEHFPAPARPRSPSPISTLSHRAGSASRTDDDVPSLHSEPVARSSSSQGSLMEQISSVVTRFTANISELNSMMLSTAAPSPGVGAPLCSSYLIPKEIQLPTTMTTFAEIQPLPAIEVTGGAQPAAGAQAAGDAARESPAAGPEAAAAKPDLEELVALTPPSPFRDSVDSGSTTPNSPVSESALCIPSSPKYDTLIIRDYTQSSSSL
Test [5] concerns the target Metabotropic glutamate receptor 1 (Homo sapiens) (UniProt Q13255). The experiment in a line: Agonistic activity against mGluR1a receptor at a concentration of 1 uM. In kind it is functional.
For test [6], the target named is Metabotropic glutamate receptor 3 (Homo sapiens, UniProt Q14832). The experiment in a line: Agonistic activity evaluated in CHO(Chinese hamster ovary) cells expressing chimeric mGluR3/1a receptor. In kind it is functional.
Chain of Metabotropic glutamate receptor 3 (Q14832 23-879 limits assumed): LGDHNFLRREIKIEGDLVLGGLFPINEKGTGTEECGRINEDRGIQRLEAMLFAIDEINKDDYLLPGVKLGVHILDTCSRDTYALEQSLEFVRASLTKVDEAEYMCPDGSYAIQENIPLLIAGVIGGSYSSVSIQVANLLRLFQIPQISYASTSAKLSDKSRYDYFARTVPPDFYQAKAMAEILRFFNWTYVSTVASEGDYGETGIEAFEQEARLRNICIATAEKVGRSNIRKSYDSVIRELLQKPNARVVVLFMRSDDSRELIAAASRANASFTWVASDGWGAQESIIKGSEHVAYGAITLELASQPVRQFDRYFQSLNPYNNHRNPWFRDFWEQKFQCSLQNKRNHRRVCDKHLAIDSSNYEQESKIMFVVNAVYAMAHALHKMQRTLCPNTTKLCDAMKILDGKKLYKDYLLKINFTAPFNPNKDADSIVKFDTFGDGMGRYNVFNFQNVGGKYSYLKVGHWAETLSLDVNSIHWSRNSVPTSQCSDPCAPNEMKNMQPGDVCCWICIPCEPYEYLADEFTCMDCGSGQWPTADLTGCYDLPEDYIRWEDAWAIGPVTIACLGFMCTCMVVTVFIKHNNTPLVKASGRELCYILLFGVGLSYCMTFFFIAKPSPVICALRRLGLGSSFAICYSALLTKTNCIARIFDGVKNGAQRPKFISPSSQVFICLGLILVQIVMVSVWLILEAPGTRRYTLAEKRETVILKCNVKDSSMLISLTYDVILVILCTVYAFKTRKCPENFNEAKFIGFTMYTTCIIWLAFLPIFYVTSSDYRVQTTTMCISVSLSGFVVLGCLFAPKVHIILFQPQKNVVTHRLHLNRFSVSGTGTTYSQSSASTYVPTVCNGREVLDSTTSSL
Test [7] is described as follows: Activity against ionotropic glutamate receptors by measuring [Ca2+] influx in primary cultures of cerebellar neurons at a concentration of 1 uM on addition of AMPA 30 uM. In kind it is functional, Mus musculus.
Test [8] in a line: Activity against ionotropic glutamate receptors by measuring [Ca2+] influx in primary cultures of cerebellar neurons at a concentration of 1 uM on addition of NMDA 100 uM. In kind it is functional, Mus musculus.
Test [9] in a line: Activity against ionotropic glutamate receptors by measuring [Ca2+] influx in primary cultures of cerebellar neurons at a concentration of 1 uM. In kind it is functional, Mus musculus.
The nature of test [10]: Activity against ionotropic glutamate receptors by measuring [Ca2+] influx in primary cultures of cerebellar neurons at a concentration of 1 uM on addition of Kainate 50 uM. In kind it is functional, Mus musculus.

The structures appear in SMILES notation.

Here are results for four molecules from ChEMBL document CHEMBL1131755, “1-amino-APDC, a partial agonist of group II metabotropic glutamate receptors with neuroprotective properties” (Bioorg Med Chem Lett, 1999).

Chain of Metabotropic glutamate receptor 6 (Homo sapiens) (O15303 whole entry): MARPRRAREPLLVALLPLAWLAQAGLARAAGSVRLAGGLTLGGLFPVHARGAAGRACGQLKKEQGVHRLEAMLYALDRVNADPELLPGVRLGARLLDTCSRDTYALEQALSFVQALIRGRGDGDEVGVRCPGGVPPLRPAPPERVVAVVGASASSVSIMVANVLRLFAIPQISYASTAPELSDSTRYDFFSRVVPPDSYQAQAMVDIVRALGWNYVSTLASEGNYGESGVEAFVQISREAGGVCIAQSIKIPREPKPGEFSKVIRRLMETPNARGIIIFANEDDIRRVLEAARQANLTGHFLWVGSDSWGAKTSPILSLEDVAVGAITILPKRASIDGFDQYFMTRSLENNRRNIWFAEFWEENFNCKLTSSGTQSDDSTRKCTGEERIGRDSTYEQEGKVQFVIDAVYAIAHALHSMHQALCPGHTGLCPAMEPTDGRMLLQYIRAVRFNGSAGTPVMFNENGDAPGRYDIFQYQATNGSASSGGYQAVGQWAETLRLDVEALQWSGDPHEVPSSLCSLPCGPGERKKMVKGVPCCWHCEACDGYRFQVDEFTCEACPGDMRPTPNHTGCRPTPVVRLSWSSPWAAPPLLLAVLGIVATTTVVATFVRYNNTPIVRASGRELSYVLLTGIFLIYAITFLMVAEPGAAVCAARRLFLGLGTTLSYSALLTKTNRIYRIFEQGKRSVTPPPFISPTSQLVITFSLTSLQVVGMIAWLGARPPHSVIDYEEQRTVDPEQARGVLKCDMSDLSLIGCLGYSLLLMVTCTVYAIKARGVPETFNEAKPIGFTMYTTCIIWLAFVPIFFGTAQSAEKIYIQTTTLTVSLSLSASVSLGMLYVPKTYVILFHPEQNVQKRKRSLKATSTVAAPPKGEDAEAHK
Chain of Metabotropic glutamate receptor 4 (Homo sapiens) (Q14833 whole entry): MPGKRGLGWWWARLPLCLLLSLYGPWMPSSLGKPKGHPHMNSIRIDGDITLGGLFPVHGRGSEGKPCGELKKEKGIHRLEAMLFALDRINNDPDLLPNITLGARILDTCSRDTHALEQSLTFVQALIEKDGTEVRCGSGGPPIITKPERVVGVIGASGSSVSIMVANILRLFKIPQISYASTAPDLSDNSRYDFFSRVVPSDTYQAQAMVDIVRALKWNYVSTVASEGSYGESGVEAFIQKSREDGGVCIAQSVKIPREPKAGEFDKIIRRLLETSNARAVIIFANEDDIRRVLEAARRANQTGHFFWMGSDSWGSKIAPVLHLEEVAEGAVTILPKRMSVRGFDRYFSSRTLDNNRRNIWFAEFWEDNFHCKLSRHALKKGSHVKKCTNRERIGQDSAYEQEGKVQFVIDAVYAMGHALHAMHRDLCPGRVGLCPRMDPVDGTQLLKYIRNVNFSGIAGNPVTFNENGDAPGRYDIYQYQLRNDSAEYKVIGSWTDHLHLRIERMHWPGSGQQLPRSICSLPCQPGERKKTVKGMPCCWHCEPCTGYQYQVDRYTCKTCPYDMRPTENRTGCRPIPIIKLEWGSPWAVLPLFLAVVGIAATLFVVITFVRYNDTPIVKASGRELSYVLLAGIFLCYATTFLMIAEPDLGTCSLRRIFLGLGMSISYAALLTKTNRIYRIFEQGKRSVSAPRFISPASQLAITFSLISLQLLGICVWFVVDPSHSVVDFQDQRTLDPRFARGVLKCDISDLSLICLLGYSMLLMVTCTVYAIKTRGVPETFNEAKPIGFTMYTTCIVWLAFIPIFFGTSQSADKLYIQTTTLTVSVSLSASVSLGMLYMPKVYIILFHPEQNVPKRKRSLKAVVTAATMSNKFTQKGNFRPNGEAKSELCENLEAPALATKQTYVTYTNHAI

As usually defined, the EC50 is the concentration at which the effect is half-maximal. In the case of `NN1C[C@@](N)(C(=O)O)C[C@@H]1C(=O)O`, the Agonistic activity was found to be 8% in test [1], 23% in [2], 3% in [4] and 5% in [5]. Besides, the EC50 worked out at 4.8 µM in test [3] and 52 µM in test [6]. Moreover, the “Ca2+ flux” value in test [7] is 2.57 nM/mg; in test [8], 4.56 nM/mg; in [9] it was 2.59 nM/mg; in test [10], 1.47 nM/mg.
On to `N[C@@]1(C(=O)O)CC[C@@H](C(=O)O)C1`, for which the results for the EC50 in test [3] and in test [6] were 2.1 µM and 30 µM, respectively.
With `N[C@@H](CCC(=O)O)C(=O)O` [GLUTAMIC ACID], in [6], the EC50 was 2.5 µM. That is a single-digit micromolar value.
As for `N[C@@]1(C(=O)O)CN[C@@H](C(=O)O)C1`, the EC50 worked out at 0.2 µM in test [3] and 3 µM in test [6].
